Paper PMC11279797, “Shifting Mycobacterial Serine Hydrolase Activity Visualized Using Multi-Layer In-Gel Activity Assays” (Molecules, 2024)

Target: T1, LipN (Mycolicibacterium smegmatis, UniProt I7G6G5)
T1 sequence (I7G6G5 1-378): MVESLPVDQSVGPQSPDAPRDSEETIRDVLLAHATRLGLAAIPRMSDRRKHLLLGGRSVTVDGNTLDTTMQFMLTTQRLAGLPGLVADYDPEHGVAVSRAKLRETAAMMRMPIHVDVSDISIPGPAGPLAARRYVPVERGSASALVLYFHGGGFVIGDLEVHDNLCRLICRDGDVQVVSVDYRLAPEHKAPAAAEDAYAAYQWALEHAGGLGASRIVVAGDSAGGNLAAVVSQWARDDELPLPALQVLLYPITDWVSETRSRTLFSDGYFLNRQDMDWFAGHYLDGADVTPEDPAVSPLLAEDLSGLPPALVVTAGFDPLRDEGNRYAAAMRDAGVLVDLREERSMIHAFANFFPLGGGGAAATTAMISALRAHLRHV
Assay: fluorogenic ester hydrolysis, initial rates, Michaelis-Menten fit
Assay type: biochemical
Conditions: PBS pH 7.4, 0.1 mg/mL acetylated BSA, 25 C

O=C(OCOc1ccc2c(c1)Oc1cc(OCOC(=O)c3cnco3)ccc1C21OC(=O)c2ccccc21)c1cnco1 [compound 7, substrate 7]
KM: Msmeg LipN has high enzymatic activity against the oxazole ester substrate
